From PubChem BioAssay (NCI) come the findings set out here.

Some test systems named below: HOP-18 NSCLC; RXF-631 renal; XF 498 CNS.
What all share (assay): NCI anticancer screen, dose series, 48 h

The structures appear in SMILES notation.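 Compound exposure: 48 hours, 5 concentrations, 96-well plates. Definition used: TGI = concentration required for complete inhibition of growth.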

As to `O=C1OCc2cccc3c2-c2c1cccc2C(=O)OC3`, the TGI in the assay with HOP-18 NSCLC is > 100 µM.
For `CCOC(=O)C1=C(C)N(NC(N)=O)C2(O)CCCC(=O)C12C` (centres undefined), the TGI in the assay with HOP-18 NSCLC, in the assay with RXF-631 renal and in the assay with XF 498 CNS was > 100 µM in each case.
